Where two headings read alike, the source gives them in different places.
Columns and labels:
[1] = Plasma and cerebrospinal fluid penetration following IV administration to rats; conditions: for Compound conc. in CSF / Compound conc. in plasma / Plasma/CSF partitioning coefficient / concentration at 2 min: rats; for concentration at 2 min: male, Sprague Dawley, rat, in vivo, iv, 10 mg/kg, Compound conc. in CSF
human μ-opioid receptor [2] = target: T1, human μ-opioid receptor (Homo sapiens, UniProt P35372); assay: cell-based; conditions: for EC50: CHO cells expressing human μ-opioid receptor, read-out: Agonist EC50
T1 construct: expressed in transfected cells; host or cells: CHO (Chinese hamster ovary) cells
Excerpt: (§1) This Example measures the ability of certain compounds of the present disclosure to effect an agonist or antagonist response when exposed to recombinant human μ-opioid receptor expressed in CHO cells.
(§2) The general procedure follows the protocol described by Wang, J.-B., Johnson, P. S., Perscio, A. M., Hawkins, A. L., Griffin, C. A. and Uhl, G. R. (1994). FEBS Lett., 338: 217-222. More specifically, the assays included each of the compounds indicated in Table 1 and recombinant Chinese hamster ovary (CHO) cells expressing the human μ-opioid receptor on their cell surfaces. The control reaction included 1 μM DAMGO. The reaction mixtures were incubated at 37° C. for 10 min, and the reaction product was cyclic AMP (cAMP). The samples were submitted to homogeneous time resolved fluorescence (HTRF®). EC50 values (concentration producing a half-maximal specific response) were determined by non-linear regression fit using the Hillplot software.

CNS opioid receptors = assay: Rat tail flick latency assay, morphine induced analgesia; assay type: in vivo, Sprague Dawley rats; conditions: antagonist subcutaneously 70 min after 5 mg/kg morphine; Compound AN-1, AN-6 0.3 mg/kg, naltrexone 1.8 mg/kg; FIG. 8
Procedure: A rat tail flick latency assay (see, e.g., Tejwani G et al., 2002, Anesth Analg 94, 1542-1546) was used to determine whether peripheral opioid antagonists of the embodiments were capable of effecting antagonist activity at opioid receptors in the central nervous system. In such an assay, the tails of rats are exposed to a noxious stimulus, such as heat, and tail withdrawal latency is measured. The latency (i.e., time between exposure and reaction) is an indication of the amount of pain experienced by the rat.
In this study, the tails of healthy male Sprague Dawley rats (5 per group) were painted with India ink (i.e., a 6-cm portion, starting at the tip). The rats were then placed in Broome Restrainers and allowed to acclimate for at least 15 min. At the conclusion of the acclimation period, baseline tail withdrawal latencies (baseline latency) were measured by exposing the rats to a focused light beam of 80 volts at a position 6.5 cm above the tail until the rats flicked their tail out of the path of the light beam. This step was repeated twice for each rat, in two spots, i.e., 2 cm and 4 cm from the tip of the tail. The responses were averaged and used as a baseline latency value for comparison to post-drug treatment latency values.

[3] = Pharmacokinetics following PO administration to rats (plasma, HPLC/MS); conditions: male, Sprague Dawley, rat, 20 mg/kg
Procedure: (§3) At specified time points, blood samples were drawn, harvested for plasma via centrifugation at 5,400 rpm at 4° C. for 5 min, and 100 microliters (μl) plasma transferred from each sample into a fresh tube containing 2 μl of 50% formic acid. The tubes were vortexed for 5-10 seconds, immediately placed in dry ice and then stored in a −80° C. freezer until analysis by HPLC/MS.
as §3, with “μl” for “microliters (μl)”
as §3, with “μl” for “microliters (μl)”
as §3, with “μl” for “microliters (μl)”

human μ-opioid receptor [4] = target: T1, human μ-opioid receptor; assay: In vitro human μ-opioid receptor antagonist cellular functional assay (cAMP, HTRF); assay type: cell-based; conditions: for EC50: CHO cells expressing human μ-opioid receptor
Excerpt: as §1, §2

[5] = Pharmacokinetics following IV administration to rats (plasma, HPLC/MS); conditions: male, Sprague Dawley, rat
[6] = male, Sprague Dawley, rat, in vivo, iv, 10 mg/kg
inflammatory pain = assay: Carrageenan-induced inflammatory paw model (Randall Selitto test); assay type: in vivo, Sprague-Dawley rats; conditions: 200 mg/kg Compound AG-2 oral gavage three hours after carrageenan; FIG. 10
Procedure: The carrageenan-induced inflammatory paw model (see, e.g., Bileviciute-Ljungar I et al, 2006, J Pharmacol Exp Ther 317, 220-227) was used to assess the ability of peripheral opioid agonist Compound AG-2 to reduce inflammatory pain, by measuring paw withdrawal latency in response to mechanical stimulation of the paw.
Sprague-Dawley rats, fasted for approximately 18 hours prior to compound administration, were used for this study. Rats were injected in the plantar surface of the right hindpaw with 100 ul of a 1% carrageenan solution formulated in water (carrageenan available from Spectrum Chemical Manufacturing Corporation, Gardena, Calif.) three hours prior to compound administration, in order to elicit maximum edema formation. The hindpaw withdrawal latency to mechanical stimulation for each paw was tested before compound administration for use as a pre-treatment baseline, and at specific time points after compound administration using the Randall Selitto test (instrument available from IITC Inc. Life Science, Woodland Hills, Calif.). Briefly, the hindpaw was pinched until the animal retracted its paw. The amount of force (in grams) required to elicit a withdrawal response was assessed. Two repeat measures were taken at each time point, and the averaged value from the inflamed paw was used to quantify the percentage of change from the pre-treatment baseline. […]

[7] = IV 10 mg/kg of each compound, 2-min time point (Table 12)
[8] = IV 10 mg/kg Compound AN-1, 2-minute time point

T1 sequence (P35372 whole entry): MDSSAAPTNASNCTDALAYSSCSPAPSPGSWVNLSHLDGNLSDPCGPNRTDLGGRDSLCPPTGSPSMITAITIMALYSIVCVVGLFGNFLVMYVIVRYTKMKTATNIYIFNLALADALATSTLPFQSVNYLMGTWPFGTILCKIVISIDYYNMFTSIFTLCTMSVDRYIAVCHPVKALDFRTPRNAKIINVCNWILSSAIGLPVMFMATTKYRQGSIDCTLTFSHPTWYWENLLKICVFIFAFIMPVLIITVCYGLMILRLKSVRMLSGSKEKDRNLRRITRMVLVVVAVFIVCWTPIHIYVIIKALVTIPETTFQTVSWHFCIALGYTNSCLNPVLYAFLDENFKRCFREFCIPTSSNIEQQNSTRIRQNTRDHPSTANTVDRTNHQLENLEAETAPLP

SMILES: C=CCN1CC[C@]23c4c5ccc(O)c4O[C@H]2C(OC(=O)N(C)CCNC(=O)[C@@H](CCCNC(=N)N)NC(=O)CC(=O)O)=CC[C@@]3(O)C1C5 [Compound AN-4, N-(naloxone-6-enol-carbonyl-methylamino)ethylamine-D-arginine-malonic acid]
- Compound conc. in CSF [1, 7]: 101 ng/mL
- Compound conc. in plasma [1, 7]: 49,200 ng/mL
- Plasma/CSF partitioning coefficient [1, 7]: 487

SMILES: CN(CCNC(=O)[C@@H](CCCNC(=N)N)NC(=O)CC(=O)O)C(=O)OC1=CCC2C3Cc4ccc(O)c5c4[C@@]2(CCN3C)[C@H]1O5 (stereo partly drawn) [Compound AG-4, N-(hydromorphone-6-enol-carbonyl-methyl-amino)ethylamine-D-arginine-malonic acid]
- HM/Compound AG-4 relative potency (human μ-opioid receptor [2]; EC50 at the human μ-opioid receptor, hydromorphone to Compound AG-4): 16.1
- EC50 (human μ-opioid receptor [2]; Table 15, Example 24): 37 nM

SMILES: CN(CCNC(=O)[C@@H](CCCCN)NC(=O)CC(=O)O)C(=O)OC1=CC[C@@]2(O)C3Cc4ccc(O)c5c4[C@@]2(CCN3CC2CC2)[C@H]1O5 [Compound AN-6, N-(naltrexone-6-enol-carbonyl-methylamino)ethylamine-D-lysine-malonic acid]
- effect on morphine induced analgesia (% MPE, tail flick) (CNS opioid receptors): no inhibition of analgesia
- Compound conc. in CSF [1, 7]: 95.0 ng/mL
- Compound conc. in plasma [1, 7]: 79,400 ng/mL
- Plasma/CSF partitioning coefficient [1, 7]: 836

SMILES: CN(CCNC(=O)[C@@H](CCCNC(=N)N)NC(=O)CC(=O)O)C(=O)OC1=CC[C@@]2(O)[C@H]3Cc4ccc(O)c5c4[C@@]2(CCN3CC2CC2)[C@H]1O5 [Compound AN-1, N-(naltrexone-6-enol-carbonyl-methylamino)ethylamine-D-arginine-malonic acid]
- AUC [3]: 139 ± 32 ng·h/mL
- Cmax [3]: 41 ± 13 ng/mL
- Tmax [3]: 45 ± 17.4 min
- effect on morphine induced analgesia (% MPE, tail flick) (CNS opioid receptors): no inhibition of analgesia
- EC50 (human μ-opioid receptor [4]; Antagonist EC50, Table 1, Example 9, 37° C. 10 min): 180 nM
- NTX/Compound AN-1 relative potency (human μ-opioid receptor [4]; EC50 at the human μ-opioid receptor, naltrexone to Compound AN-1): 6.0
- relative plasma/CSF partitioning coefficient of Compound AN-1 to naltrexone ([1]; 620/9.6): about 65
- Compound conc. in CSF [1, 8]: 74.7 ng/mL
- Compound conc. in plasma [1, 8]: 46,300 ng/mL
- Plasma/CSF partitioning coefficient [1, 8]: 620
- Cmax ([5]; 10 mg/kg): 46300 ng/mL

SMILES: O=C1CC[C@@]2(O)[C@H]3Cc4ccc(O)c5c4[C@@]2(CCN3CC2CC2)[C@H]1O5 [Naltrexone, naltrexone, reference compound]
- effect on morphine induced analgesia (% MPE, tail flick) (CNS opioid receptors): rapid inhibition of analgesia
- concentration at 2 min [1, 8]: 7.44 ng/mL
- concentration at 2 min ([1]; IV 10 mg/kg Compound AN-3, 2-minute time point): 0.813 ng/mL
- Compound conc. in plasma [1, 8]: 71.1 ng/mL
- Compound conc. in plasma [6]: 9.17 ng/mL

SMILES: COc1ccc2c3c1O[C@H]1C(OC(=O)N(C)CCNC(=O)[C@@H](CCCNC(=N)N)NC(=O)CC(=O)O)=CC[C@@]4(O)[C@@H](C2)N(C)CC[C@]314 [Compound AG-2, N-(oxycodone-6-enol-carbonyl-methylamino)ethylamine-D-arginine-malonic acid]
- Cmax [3]: 46.1 ± 0.9 ng/mL
- Tmax [3]: 37.5 ± 15 min
- increase in pain tolerance compared to the untreated rats (inflammatory pain): approximately 50%
- Compound conc. in CSF [6]: 22.8 ng/mL
- Compound conc. in plasma [6]: 28,600 ng/mL
- Plasma/CSF partitioning coefficient [6]: 1,254
- Cmax ([5]; 2 mg/kg): 3410 ng/mL
- OC/Compound AG-2 relative potency (human μ-opioid receptor [2]): 10.9
- EC50 (human μ-opioid receptor [2]; Table 1, Example 9, 37° C. 10 min): 850 nM

SMILES: CC(=O)N[C@H](CC(=O)O)C(=O)NCCN(C)C(=O)OC1=CC[C@@]2(O)C3Cc4ccc(O)c5c4[C@@]2(CCN3CC2CC2)[C@H]1O5 [Compound AN-7, N-(naltrexone-6-enol-carbonyl-methylamino)ethylamine-D-aspartic acid-acetate]
- EC50 (human μ-opioid receptor [4]; Antagonist EC50, Table 15, Example 24): 300 nM
- NTX/Compound AN-7 relative potency (human μ-opioid receptor [4]; EC50 at the human μ-opioid receptor, naltrexone to Compound AN-7): 8.6
- Compound conc. in CSF [1, 7]: 462 ng/mL
- Compound conc. in plasma [1, 7]: 76,600 ng/mL
- Plasma/CSF partitioning coefficient [1, 7]: 166

— patent US20130079364A1, “Peripheral Opioid Agonists and Peripheral Opioid Antagonists” (SIGNATURE THERAPEUTICS, INC., priority 2010, published 2013)
